Results from US11420973B2, “Amide substituted indole compounds useful as TLR inhibitors” (BRISTOL-MYERS SQUIBB COMPANY, priority 2017, dated 2022).

Key:
human TLR9 = human TLR9 (Homo sapiens (Human), UniProt Q9NR96); assay: TLR9 inhibition reporter assay (HEK-Blue SEAP reporter, ODN2006 stimulation); settings: read-out: TLR9 IC50; HEK-Blue cells overexpressing human TLR9, ODN2006 5 nM, SEAP reporter;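 further: SEAP reporter under IFN-β minimal promoter with five NF-κB and AP-1 sites, 22 h incubation, compounds 0.05 nM–50 µM, inhibition relative to agonist plus DMSO versus known inhibitor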
Procedure: HEK-Blue™-cells (Invivogen) overexpressing human TLR7, TLR8 or TLR9 receptors were used for screening inhibitors of these receptors using an inducible SEAP (secreted embryonic alkaline phosphatase) reporter gene under the control of the IFN-β minimal promoter fused to five NF-κB and AP-1-binding sites. Briefly, cells are seeded into Greiner 384 well plates (15000 cells per well for TLR7, 20,000 for TLR8 and 25,000 for TLR9) and then treated with test compounds in DMSO to yield a final dose response concentration range of 0.05 nM-50 μM. After a 30 minute compound pre-treatment at room temperature, the cells are then stimulated with a TLR7 ligand (gardiquimod at a final concentration of 7.5 μM), TLR8 ligand (R848 at a final concentration of 15.9 μM) or TLR9 ligand (ODN2006 at a final concentration of 5 nM) to activate NF-κB and AP-1 which induce the production of SEAP. After a 22 hour incubation at 37° C., 5% CO2, SEAP levels are determined with the addition of HEK-Blue™ Detection reagent (Invivogen), a cell culture medium that allows for detection of SEAP, according to manufacturer's specifications.

human TLR7 = human TLR7 (Homo sapiens (Human), UniProt Q9NYK1); assay: TLR7 inhibition reporter assay (HEK-Blue SEAP reporter, gardiquimod stimulation); format: cell-based; settings: HEK-Blue cells overexpressing human TLR7, gardiquimod 7.5 μM
human TLR8 = human TLR8 (Homo sapiens (Human), UniProt Q9NR97); assay: TLR8 inhibition reporter assay (HEK-Blue SEAP reporter, R848 stimulation); settings: read-out: TLR8 IC50; HEK-Blue cells overexpressing human TLR8, R848 15.9 μM, SEAP reporter;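 further: SEAP driven by IFN-β minimal promoter with NF-κB and AP-1 sites, 22 h incubation, compounds 0.05 nM–50 µM, inhibition scaled between agonist plus DMSO and reference inhibitor wells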
Chain of human TLR8 (Q9NR97 27-1041): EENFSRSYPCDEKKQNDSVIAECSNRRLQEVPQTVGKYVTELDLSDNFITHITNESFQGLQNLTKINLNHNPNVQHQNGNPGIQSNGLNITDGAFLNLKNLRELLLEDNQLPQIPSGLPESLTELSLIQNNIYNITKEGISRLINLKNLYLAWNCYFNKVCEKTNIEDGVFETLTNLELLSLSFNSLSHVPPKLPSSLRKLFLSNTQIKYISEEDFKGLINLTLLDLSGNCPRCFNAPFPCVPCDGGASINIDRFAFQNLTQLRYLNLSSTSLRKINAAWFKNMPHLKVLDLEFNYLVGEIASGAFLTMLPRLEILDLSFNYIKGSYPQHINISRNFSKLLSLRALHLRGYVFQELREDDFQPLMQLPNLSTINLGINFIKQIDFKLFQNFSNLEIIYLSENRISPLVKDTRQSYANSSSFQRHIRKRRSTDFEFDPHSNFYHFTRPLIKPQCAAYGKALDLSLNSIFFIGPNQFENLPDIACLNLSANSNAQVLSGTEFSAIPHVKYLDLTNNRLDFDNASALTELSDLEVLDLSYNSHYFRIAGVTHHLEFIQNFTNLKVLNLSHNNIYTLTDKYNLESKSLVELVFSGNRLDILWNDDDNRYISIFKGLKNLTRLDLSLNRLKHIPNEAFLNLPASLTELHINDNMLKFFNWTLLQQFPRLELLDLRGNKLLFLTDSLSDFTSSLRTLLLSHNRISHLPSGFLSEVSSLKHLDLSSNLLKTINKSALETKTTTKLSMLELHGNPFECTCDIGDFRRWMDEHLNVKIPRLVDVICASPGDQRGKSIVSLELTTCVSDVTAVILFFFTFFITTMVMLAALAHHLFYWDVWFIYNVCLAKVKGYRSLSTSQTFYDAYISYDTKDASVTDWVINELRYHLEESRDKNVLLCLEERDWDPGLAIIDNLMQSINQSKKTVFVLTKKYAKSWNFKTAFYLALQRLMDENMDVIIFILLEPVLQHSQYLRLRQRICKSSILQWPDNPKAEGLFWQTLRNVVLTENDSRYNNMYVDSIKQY

Chain of human TLR7 (Q9NYK1 27-1049): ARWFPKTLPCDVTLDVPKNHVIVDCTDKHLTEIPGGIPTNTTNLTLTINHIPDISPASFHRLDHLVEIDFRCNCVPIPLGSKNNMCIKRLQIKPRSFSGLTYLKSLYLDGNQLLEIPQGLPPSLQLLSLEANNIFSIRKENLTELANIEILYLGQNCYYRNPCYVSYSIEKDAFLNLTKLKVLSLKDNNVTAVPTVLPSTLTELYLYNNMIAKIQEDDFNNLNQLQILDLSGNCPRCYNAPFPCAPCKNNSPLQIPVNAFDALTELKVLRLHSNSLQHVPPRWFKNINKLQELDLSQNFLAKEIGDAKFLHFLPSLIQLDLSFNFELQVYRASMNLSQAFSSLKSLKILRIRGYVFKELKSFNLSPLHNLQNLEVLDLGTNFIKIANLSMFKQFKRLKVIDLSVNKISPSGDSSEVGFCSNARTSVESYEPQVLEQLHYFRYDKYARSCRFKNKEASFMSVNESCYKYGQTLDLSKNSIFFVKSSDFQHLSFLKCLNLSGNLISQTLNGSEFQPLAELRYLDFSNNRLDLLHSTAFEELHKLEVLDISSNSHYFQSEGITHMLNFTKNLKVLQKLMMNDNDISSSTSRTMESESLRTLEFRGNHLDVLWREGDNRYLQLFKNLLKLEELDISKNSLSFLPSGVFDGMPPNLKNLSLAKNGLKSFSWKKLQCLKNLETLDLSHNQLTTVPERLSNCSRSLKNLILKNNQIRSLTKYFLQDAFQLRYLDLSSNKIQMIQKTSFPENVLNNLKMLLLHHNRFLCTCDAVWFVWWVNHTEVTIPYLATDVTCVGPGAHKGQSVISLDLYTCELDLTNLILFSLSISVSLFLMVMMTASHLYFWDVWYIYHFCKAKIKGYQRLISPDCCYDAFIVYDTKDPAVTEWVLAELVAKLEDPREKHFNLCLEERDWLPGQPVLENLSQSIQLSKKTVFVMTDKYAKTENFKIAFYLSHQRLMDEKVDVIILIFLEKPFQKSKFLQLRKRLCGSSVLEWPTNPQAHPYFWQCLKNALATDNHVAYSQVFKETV
Chain of human TLR9 (Q9NR96 26-1032): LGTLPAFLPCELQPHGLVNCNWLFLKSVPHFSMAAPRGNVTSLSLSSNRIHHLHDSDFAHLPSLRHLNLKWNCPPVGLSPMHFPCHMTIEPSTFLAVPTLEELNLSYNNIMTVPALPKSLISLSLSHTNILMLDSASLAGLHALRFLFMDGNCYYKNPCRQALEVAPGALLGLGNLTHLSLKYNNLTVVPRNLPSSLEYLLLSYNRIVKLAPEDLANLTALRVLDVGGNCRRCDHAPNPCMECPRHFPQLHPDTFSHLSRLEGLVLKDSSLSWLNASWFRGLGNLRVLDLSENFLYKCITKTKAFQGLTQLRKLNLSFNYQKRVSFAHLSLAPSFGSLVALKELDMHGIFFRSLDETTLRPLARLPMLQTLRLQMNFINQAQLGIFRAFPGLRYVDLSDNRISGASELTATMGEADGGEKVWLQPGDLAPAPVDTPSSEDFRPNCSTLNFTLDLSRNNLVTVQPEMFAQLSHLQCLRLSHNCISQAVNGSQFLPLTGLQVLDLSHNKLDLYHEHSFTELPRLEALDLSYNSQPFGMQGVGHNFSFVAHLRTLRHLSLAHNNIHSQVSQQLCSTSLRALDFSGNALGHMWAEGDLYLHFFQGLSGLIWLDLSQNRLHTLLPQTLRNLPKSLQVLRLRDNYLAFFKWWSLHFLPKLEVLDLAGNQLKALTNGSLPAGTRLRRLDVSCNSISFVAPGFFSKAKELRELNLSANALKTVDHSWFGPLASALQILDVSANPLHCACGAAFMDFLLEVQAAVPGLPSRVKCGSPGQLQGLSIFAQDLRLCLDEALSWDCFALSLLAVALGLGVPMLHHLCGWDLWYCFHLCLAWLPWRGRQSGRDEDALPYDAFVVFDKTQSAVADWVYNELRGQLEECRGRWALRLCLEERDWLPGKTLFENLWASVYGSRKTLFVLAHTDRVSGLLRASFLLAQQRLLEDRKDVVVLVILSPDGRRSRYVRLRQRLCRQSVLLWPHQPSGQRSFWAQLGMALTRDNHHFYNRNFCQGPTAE

Structure (SMILES)	IC50 (human TLR9) [nM]	IC50 (human TLR7) [nM]	IC50 (human TLR8) [nM]
CCc1c(-c2ccc(OC)c(OC)c2)[nH]c2ccc(C(=O)N3CCc4ccccc43)cc12 [Example 66, (2-(3,4-dimethoxyphenyl)-3-ethyl-1H-indol-5-yl)(indolin-1-yl)methanone]	> 50000	3940	1170
Cc1cc(-c2[nH]c3ccc(C(C)C(=O)NC[C@H]4CCNC4)cc3c2C(C)C)ccn1 (stereo partly drawn) [Example 212, 2-(3-isopropyl-2-(2-methylpyridin-4-yl)-1H-indol-5-yl)-N—(((S)-pyrrolidin-3-yl)methyl)propanamide]	5000	821	1470
Cc1c(-c2[nH]c3ccc(C(=O)N(C)CCN(C)C)cc3c2C(C)C)cn(C)c(=O)c1Cl [Example 222, 2-(5-chloro-1,4-dimethyl-6-oxo-1,6-dihydropyridin-3-yl)-N-(2-(dimethylamino)ethyl)-3-isopropyl-N-methyl-1H-indole-5-carboxamide]	6920	22	10
Cc1cc(-c2[nH]c3ccc(C(C)C(=O)NC4CN5CCC4CC5)cc3c2C(C)C)ccn1 (stereo not drawn) [Example 192, 2-(3-isopropyl-2-(2-methylpyridin-4-yl)-1H-indol-5-yl)-N-(quinuclidin-3-yl)propanamide]	1530	71	142
Cc1cc(-c2[nH]c3ccc(C(C)(C)C(=O)NCCC(C)(C)O)cc3c2C(C)C)ccn1 [Example 135, N-(3-hydroxy-3-methylbutyl)-2-(3-isopropyl-2-(2-methylpyridin-4-yl)-1H-indol-5-yl)-2-methylpropanamide]	> 50000	202	551
Cc1cc(-c2[nH]c3ccc(C(C)(C)C(=O)N4CC5CNC5C4)cc3c2C(C)C)ccn1 (stereo not drawn) [Example 185, 1-(3,6-diazabicyclo[3.2.0]heptan-3-yl)-2-(3-isopropyl-2-(2-methylpyridin-4-yl)-1H-indol-5-yl)-2-methylpropan-1-one]	11900	71	554
CCc1c(-c2ccc(OC)c(OC)c2)[nH]c2ccc(C(=O)NCC(C)(C)CO)cc12 [Example 72, 2-(3,4-dimethoxyphenyl)-3-ethyl-N-(3-hydroxy-2,2-dimethylpropyl)-1H-indole-5-carboxamide]	> 50000	579	408
Cc1cc(-c2[nH]c3ccc(C(=O)N(C)C)cc3c2C(C)C)cc(C)n1 [Example 94, 2-(2,6-dimethylpyridin-4-yl)-3-isopropyl-N,N-dimethyl-1H-indole-5-carboxamide]	> 50000	18	23
CCc1c(-c2ccc(OC)c(OC)c2)[nH]c2ccc(C(=O)N(C)Cc3cccnc3)cc12 [Example 22, 2-(3,4-dimethoxyphenyl)-3-ethyl-N-methyl-N-(pyridin-3-ylmethyl)-1H-indole-5-carboxamide]	37600	356	264
CCc1c(-c2ccc(OC)c(OC)c2)[nH]c2ccc(C(=O)N3CCN(C(=O)c4ccco4)CC3)cc12 [Example 60, (2-(3,4-dimethoxyphenyl)-3-ethyl-1H-indol-5-yl)(4-(furan-2-carbonyl)piperazin-1-yl)methanone]	> 50000	206	115
Cc1cc(-c2[nH]c3ccc(C(=O)N(C)Cc4cccc(N)c4)cc3c2C(C)C)cc(C)n1 [Example 103, N-(3-aminobenzyl)-2-(2,6-dimethylpyridin-4-yl)-3-isopropyl-N-methyl-1H-indole-5-carboxamide]	27100	54	192

Continued, values first:

IC50 (human TLR9) [nM]	IC50 (human TLR7) [nM]	IC50 (human TLR8) [nM]	Structure (SMILES)
2230	2610	226	CNCC(=O)N1CC2CN(C(=O)c3ccc4[nH]c(-c5ccnc(C)c5)c(C(C)C)c4c3)CC2C1 (stereo not drawn) [Example 119, 1-(5-(3-isopropyl-2-(2-methylpyridin-4-yl)-1H-indole-5-carbonyl)hexahydropyrrolo[3,4-c]pyrrol-2(1H)-yl)-2-(methylamino)ethanone]
2410	29	233	COc1cc(-c2[nH]c3ccc(C(=O)N4CC5CNCC5C4)cc3c2C(C)C)cn2ncnc12 (stereo not drawn) [Example 126, (hexahydropyrrolo[3,4-c]pyrrol-2(1H)-yl)(3-isopropyl-2-(8-methoxy-[1,2,4]triazolo[1,5-a]pyridin-6-yl)-1H-indol-5-yl)methanone]
2530	331	617	Cc1cc(-c2[nH]c3ccc(C(C)(C)C(=O)NCC4CCNCC4)cc3c2C(C)C)ccn1 [Example 164, 2-(3-isopropyl-2-(2-methylpyridin-4-yl)-1H-indol-5-yl)-2-methyl-N-(piperidin-4-ylmethyl)propanamide]
912	273	75	Cc1cc(-c2[nH]c3ccc(C(C)C(=O)N[C@@H]4CCCNC4)cc3c2C(C)C)ccn1 (stereo partly drawn) [Example 195, 2-(3-isopropyl-2-(2-methylpyridin-4-yl)-1H-indol-5-yl)-N—((R)-piperidin-3-yl)propanamide]
1270	50	0.8	Cc1cc(-c2[nH]c3ccc(C(=O)NC4CCN(C(C)C)CC4)cc3c2C(C)C)ccn1 [Example 113, 3-isopropyl-N-(1-isopropylpiperidin-4-yl)-2-(2-methylpyridin-4-yl)-1H-indole-5-carboxamide]
1210	109	92	Cc1cc(-c2[nH]c3ccc(C(C)(C)C(=O)NC4CCC5CNCC54)cc3c2C(C)C)ccn1 (stereo not drawn) [Example 147, 2-(3-isopropyl-2-(2-methylpyridin-4-yl)-1H-indol-5-yl)-2-methyl-N-(octahydrocyclopenta[c]pyrrol-4-yl)propanamide]
999	167	316	Cc1cc(-c2[nH]c3ccc(C(C)C(=O)NC4CCC(N)CC4)cc3c2C(C)C)ccn1 (stereo not drawn) [Example 217, N-(4-aminocyclohexyl)-2-(3-isopropyl-2-(2-methylpyridin-4-yl)-1H-indol-5-yl)propanamide]
2510	115	7.9	CCc1c(-c2ccc(OC)c(OC)c2)[nH]c2ccc(C(=O)NCCN(C)C)cc12 [Example 17, 2-(3,4-dimethoxyphenyl)-N-[2-(dimethylamino)ethyl]-3-ethyl-1H-indole-5-carboxamide]
685	103	96	Cc1cc(-c2[nH]c3ccc(C(C)C(=O)N(C)C4CCCNC4)cc3c2C(C)C)ccn1 (stereo not drawn) [Example 209, 2-(3-isopropyl-2-(2-methylpyridin-4-yl)-1H-indol-5-yl)-N-methyl-N-(piperidin-3-yl)propanamide]
1220	40	32	Cc1cc(-c2[nH]c3ccc(C(C)(C)C(=O)N[C@@H]4CCCNC4)cc3c2C(C)C)ccn1 [Example 140, (R)-2-(3-isopropyl-2-(2-methylpyridin-4-yl)-1H-indol-5-yl)-2-methyl-N-(piperidin-3-yl)propanamide]
1090	63	110	Cc1cc(-c2[nH]c3ccc(C(C)(C)C(=O)NCCN)cc3c2C(C)C)ccn1 [Example 134, N-(2-aminoethyl)-2-(3-isopropyl-2-(2-methylpyridin-4-yl)-1H-indol-5-yl)-2-methylpropanamide]
